Assay results reported in PMC9967275, “Screening the Pathogen Box to Discover and Characterize New Cruzain and TbrCatL Inhibitors” (Pathogens, 2023).

Key:
cruzain = cruzain (Trypanosoma cruzi, UniProt P25779); assay: biochemical; conditions: for Cruzain 0’ Inhibition / Cruzain 10’ Inhibition: sheet "Screening results"
Method: (§1) Allison Doak and Prof. Brian Shoichet (University of California San Francisco, San Francisco, CA, USA) and Prof. Conor Caffrey (University of California San Diego, San Diego, CA, USA) generously provided recombinant cruzain and TbrCatL, respectively. In vitro activity of proteases cruzain and TbrCatL was assayed as previously described. Briefly, enzyme activity was measured by monitoring the cleavage of the fluorogenic substrate […] (Z-FR-AMC) at 25 °C. Fluorescence was monitored at 340/440 nm (excitation/emission) over 5–7 min in a Synergy2 Biotek plate reader. […] DMSO and 1 μM E-64 were employed as negative and positive controls, respectively, in all assays. Two conditions were employed for both enzymes: 10′ pre-incubation of the enzyme in the presence of the compound (10′ inc) and no pre-incubation (0′). Reported values correspond to the mean and standard error of the mean (SEM) and all analyses were performed using GraphPad Prism 6.0.
(§2) For the initial screening, compounds were assayed at 5 μM. […] IC50 curves were obtained from a non-linear fit of at least seven distinct compound concentrations, in triplicate. Reported IC50 values are the mean and SEM of two independent measurements.

TbrCatL = molecular target: T1, TbrCatL (Trypanosoma brucei rhodesiense, UniProt Q95PM0); assay: TbrCatL enzymatic inhibition assay (cleavage of fluorogenic substrate Z-FR-AMC); type: biochemical; conditions: for TbrCatL 0’ Inhibition / TbrCatL 10’ Inhibition: sheet "Screening results"
T1 construct: Conor Caffrey (University of California San Diego)
Method: as §1, §2

[1] = 0’ (no pre-incubation), sheet Screening results
[2] = 10’ (pre-incubation), sheet Screening results
[3] = 0’ (pre-incubation time), Pathogen Box screening results
[4] = 10’ (pre-incubation time), Pathogen Box screening results
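Further: at 5 µM compound concentration.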

T1 sequence (Q95PM0 entry or part of it): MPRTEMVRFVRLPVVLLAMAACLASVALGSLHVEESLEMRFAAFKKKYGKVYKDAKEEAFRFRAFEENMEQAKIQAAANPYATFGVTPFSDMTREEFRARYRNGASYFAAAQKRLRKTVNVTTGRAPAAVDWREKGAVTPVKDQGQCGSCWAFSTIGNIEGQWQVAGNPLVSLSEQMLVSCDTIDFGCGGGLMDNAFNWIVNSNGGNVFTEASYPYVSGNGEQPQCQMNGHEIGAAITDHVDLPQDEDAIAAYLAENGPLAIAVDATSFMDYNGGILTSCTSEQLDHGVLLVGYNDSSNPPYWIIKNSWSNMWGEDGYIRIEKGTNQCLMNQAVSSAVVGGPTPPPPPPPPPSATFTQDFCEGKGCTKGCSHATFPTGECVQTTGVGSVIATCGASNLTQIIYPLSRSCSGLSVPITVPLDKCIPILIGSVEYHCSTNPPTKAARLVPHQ
Chain of cruzain (P25779 123-337 limits assumed): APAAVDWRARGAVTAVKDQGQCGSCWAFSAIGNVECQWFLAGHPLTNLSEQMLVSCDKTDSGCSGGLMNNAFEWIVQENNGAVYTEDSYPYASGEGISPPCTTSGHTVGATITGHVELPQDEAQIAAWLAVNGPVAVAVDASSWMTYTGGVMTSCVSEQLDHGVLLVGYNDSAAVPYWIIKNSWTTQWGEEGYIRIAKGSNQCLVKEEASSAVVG

Structure (SMILES)	Cruzain Inhibition 0’ (cruzain; [1]) [%]	Cruzain Inhibition 10’ (cruzain; [2]) [%]	TbrCatL Inhibition 0’ (TbrCatL; [1]) [%]	TbrCatL Inhibition 10’ (TbrCatL; [2]) [%]	Cruzain 0’ Inhibition (cruzain; 0’ (pre-incubation time)) [%]	Cruzain 10’ Inhibition (cruzain; 10’ (pre-incubation time)) [%]	TbrCatL 0’ Inhibition (TbrCatL; 0’ (pre-incubation time)) [%]	TbrCatL 10’ Inhibition (TbrCatL; 10’ (pre-incubation time)) [%]	other results
Cc1ccc2c(c1C)NC(=O)C21NN=C(c2ccccc2)S1 (stereo not shown) [MMV019189]	-17	-22	-21	14					
COc1ccc(C2CC(c3cccs3)=NN2C(=O)c2ccco2)cc1OC (stereo not shown) [MMV019234]	6.6	8	7	22					
CCC(NC(=O)c1ccccc1NC(=O)c1ccc(C)cc1)C(=O)OC (stereo not shown) [MMV019551]					-0.5	1.2	-0.4	3.2	
CCN(CC)S(=O)(=O)c1ccc(Cl)c(C(=O)Nc2ccc3nc(C)sc3c2)c1 [MMV019721]	6.4	6.4	5	-2.6					
Cc1ccc(S(=O)(=O)N2CCN(C(=O)c3cc(-c4ccccc4)n[nH]3)CC2)cc1 [MMV019742]	-5	-3	3.5	-2.5					
CCOc1ccccc1C(=O)Nc1cccc(-c2nc3ncccn3c2C)c1 [MMV019790]					3.2	4	8	-0.3	
Cc1ccc2cc(C3NC(=O)c4ccccc4N3)c(Cl)nc2c1 (stereo not shown) [MMV019807]	8	7	5	9					
O=C(Nc1ccnc(-c2cccnc2)n1)c1cc(C(F)(F)F)cc(C(F)(F)F)c1 [MMV019838]	2	16	-8	-5					
Cc1nn(C)cc1C(C)Nc1nncc(-c2ccc(C(F)(F)F)cc2)n1 (stereo not shown) [MMV019993]					-5	-1.8	0.6	-3.6	
COc1cccc(CC(=O)N2CCC(n3c(C)nc4ccc(F)cc43)CC2)c1 [MMV020081]					5	10	1.6	18	
CC1CC1C(=O)NC1CCN(CC2(c3ccccc3)CCCCC2)CC1 (stereo not shown) [MMV020120]	1.3	-0.5	-2.3	3.8					
CNC(=O)c1cc(S(=O)(=O)N2CCN(c3ccccn3)CC2)cs1 [MMV020136]	5	2	-6.4	-5.6					
Cc1cc(C(=O)Nc2ccc(-c3ccccc3)cc2)no1 [MMV020152]	3.7	-0.4	-2	1.1					
CC(C)NCC(=O)Nc1cccc(C(=O)Nc2cccc(C(F)(F)F)c2)c1 [MMV020165]					-1.7	12	1.8	5	
Cc1ccc(NC(=O)c2cc(S(=O)(=O)NC(C)(C)C)ccc2C)nc1 [MMV020289]					1	1.9	1.9	1.3	
CC(C(=O)N1CCCC1)N1CCN(S(=O)(=O)c2ccc(C(C)(C)C)cc2)CC1 (stereo not shown) [MMV020291]					2.5	6	4.3	8	
Cc1nnc(NC(=O)c2cn(-c3ccccc3)nc2-c2ccccc2C)o1 [MMV020320]	4.5	2.2	-0.2	4					
COc1ccccc1C(C)NCC(=O)Nc1cc(C(F)(F)F)ccc1Cl (stereo not shown) [MMV020321]	0.3	-0.8	-9	-10					
CC1CCCN(C(=O)C(C)Nc2cc(Cl)ccc2N2CCOCC2)C1 (stereo not shown) [MMV020388]	3.4	4.5	3.3	0.2					
CC(C)C(C(=O)Nc1ccc(S(=O)(=O)N(C)C)cc1)c1ccc(Cl)cc1 (stereo not shown) [MMV020391]	-1.5	2	-3.4	-2.5					

Structure (SMILES)	Cruzain Inhibition 0’ (cruzain; [1]) [%]	Cruzain Inhibition 10’ (cruzain; [2]) [%]	TbrCatL Inhibition 0’ (TbrCatL; [1]) [%]	TbrCatL Inhibition 10’ (TbrCatL; [2]) [%]	Cruzain 0’ Inhibition (cruzain; 0’ (pre-incubation time)) [%]	Cruzain 10’ Inhibition (cruzain; 10’ (pre-incubation time)) [%]	TbrCatL 0’ Inhibition (TbrCatL; 0’ (pre-incubation time)) [%]	TbrCatL 10’ Inhibition (TbrCatL; 10’ (pre-incubation time)) [%]	other results
Cc1ccc(Oc2ccc(NC(=O)CNc3ccccc3N3CCCC3=O)cc2)cc1 [MMV020512]	0.2	8	-3.2	-0.2					
COc1ccccc1CNC(=O)c1cc(C2CC2)nc2c1cnn2C(C)C [MMV020517]	4	7	2.7	9					
Cc1cc2ccccc2n1CC(=O)N1CC(C(=O)N2CCCCC2)Oc2ccccc21 (stereo not shown) [MMV020520]	4.7	3.4	1.6	10					
O=C(NC1CC1)c1ccc(N2CCOc3ccc(Cl)cc32)s1 [MMV020537]	18	9	8	6					
CC(C)C(NC(=O)Cc1cccc2ccccc12)C(=O)Nc1cccc(C#N)c1 (stereo not shown) [MMV020591]	-1.7	-0.4	-8	-3.7					
Cc1noc(C)c1C(=O)N1CCCC(c2[nH]c3c(C)cccc3c2-c2ccncc2)C1 (stereo not shown) [MMV020623]	0.3	5	-5.6	4					
COc1ccc(-c2cncc3ccc(C(=O)NCCCn4ccnc4)nc23)cc1 [MMV020670]					-2.2	-17	-3	-13	
COc1ccc(Cl)cc1NC(=O)CN(C)C(=O)c1cnn(-c2ccccc2)n1 [MMV020710]	-11	-36	-10	-99					
CC(C)(C)c1cc(C(=O)Nc2cccnc2)cc(C(=O)Nc2cccnc2)c1 [MMV020982]	1.3	-0.5	-6	-7					
c1ccc(-c2nc(NC3CCCCC3)cc(C3CC3)n2)nc1 [MMV021013]									Cruzain Inhibition 0’ (cruzain; [3]): 9%; Cruzain Inhibition 10’ (cruzain; [4]): 16%; TbrCatL Inhibition 0’ (TbrCatL; [3]): -1.4%; TbrCatL Inhibition 10’ (TbrCatL; [4]): 19%
CO/C=C(\C(=O)OC)c1ccccc1Oc1cc(Oc2ccccc2C#N)ncn1 [MMV021057]	1.6	6.5	1.9	9					
Cc1cc(NCC(C)C)c2[nH]nc(-c3ccccc3)c2n1 [MMV021375]					18	23	17	20	
Cc1cc(NCCc2ccccc2)nc(NC(=N)Nc2ccc(Cl)cc2)n1 [MMV021660]					11	14	-3.6	7	
CN1CCC(NCc2cccc(-c3ccc(S(=O)(=O)NCc4ccccc4)cc3)c2)CC1 [MMV022029]					-2.3	29	-8	14	
CCN(CC)CCCN1CCN(C(=O)c2cccc(-c3noc(C(F)(F)F)n3)c2)CC1 [MMV022236]					7	16	7.4	16	
O=C(Nc1ccc(N2CCNCC2)cc1)c1ccn2ncc(-c3cccc(Cl)c3)c2n1 [MMV022478]					15	18	1.7	10	
c1ccc2c(c1)CN(CC1CC1)CC1(CCN(Cc3c[nH]c4cnccc34)CC1)O2 [MMV023183]					3.5	15	6	1.8	
Cc1nc(-c2cccc(NCc3ccccc3)c2)[nH]c1C [MMV023227]					2	15	-7	22	
Nc1nccc2ccc(-c3ccc4nccn4c3)cc12 [MMV023233]					11	8	0.7	7	
Nc1ncc(-c2cn[nH]c2)cc1-c1nc2cc(Cl)cnc2[nH]1 [MMV023370]					-3.5	8	3.3	-1.5	
